In test [1] the test system is PC3 (AR‐negative) PCa cells. Nature of the test: 2D proliferation assay (resazurin), PC3. The format is cell-based. The protocol:
(§1) Cell cultures, proliferation assay and spheroid gro wth […]
streptomycin and 2 m M L-glutamine. All cells were regularly tested for mycoplasma contamination.
For the proliferation assay, cells were counted with a hemocytometer and seeded in triplicates in 96-well plates (4 .5x10^3 cells/well for 22Rv1 and 2.0x103 for PC3) and let adhere overnight at 37°C, […]
(§2) transfected with siRNA for BAZ2A , RLUC or KIF11, as detailed below. The cells were incubated for 1, 3, 6 (PC3) and 9 days (22Rv1) and the medium containing either the carrier or the inhibitors was replaced every 3 day s. Cell proliferation and viability were determined at day 1, 3, 6 and 9 by adding 10% resazurin sodium salt solution (0. 03 mg/ml powder from Sigma -Aldrich) directly into each well and incubating them for 4h at 37°C, 5% CO 2. The absorbance at 570/600 nm was measured using a Varioskan plate reader. The reduction of the resazur in sodium salt was calculated using the formula: (Abs x – Abs 0. 1%DMSO day1)/(Abs 0. 1%DMSO day9 - Abs 0. 1%DMSO day1). The growth rate was analysed using the linear regression algorithm of GraphPad Prism. […]

For test [2], the system named is 22Rv1 (AR‐positive) PCa cells. Nature of the test: 2D proliferation assay (resazurin), 22Rv1. The format is cell-based. The protocol:
(§3) Cell cultures, proliferation assay and spheroid gro wth
PC3 and 22Rv1 cells were cultured in RPMI 1640 medium containing 10% FBS, 1% penicillin-streptomycin and 2 m M L-glutamine. All cells were regularly tested for mycoplasma contamination.
For the proliferation assay, cells were counted with a hemocytometer and seeded in triplicates in 96-well plates (4 .5x10^3 cells/well for 22Rv1 and 2.0x103 for PC3) and let adhere overnight at 37°C, 5% CO2. The following day, the medium was replaced with RPMI 1640 containing either the carrier […]
as §2
A general note: The colour change of resazurin is a common sign of viable cells or microbes.

The test system of a further test is PC3 spheroids. Nature of the test: Spheroid growth (3D), PC3. The format is cell-based. As for the experimental part: as §1
streptomycin and 2 m M L-glutamine. All cells were regularly tested for mycoplasma contamination. […]
Spheroids were obtained by plating PC3 and 22Rv1 cells in low -adhesion round bottom 96 -well […]
(§4) After seeding, the cells were centrifuged for 10 min at 1200 x g at 4°C. Spheroids were given 48 hours to form after seeding before adding the treatment or the carrier (0.1% DMSO). Medium supplemented with treatment/carrier was changed every 48 hours, for a total of 32 days for 22Rv1 and 16 days for PC3. Each spheroid was imaged in brightfield every day or every other day (after day 20), using a Leica DM IL microscope […]
(§5) equipped with a Leica DFC450C digital camera. The area of each spheroid was measured using ImageJ and the average area for each condition was calculated. The growth rate was analysed using the segmental linear regression algorithm of GraphPad Prism. The appropriateness of the model was evaluated by considering the R square values and the Replicates test (Suppl. Table 6). […]

Another test deals with 22Rv1 spheroids. Nature of the test: Spheroid growth (3D), 22Rv1. The format is cell-based. As for the experimental part:
as §3
PC3 and 22Rv1 cells were cultured in RPMI 1640 medium containing 10% FBS, 1% penicillin-streptomycin and 2 m M L-glutamine. All cells were regularly tested for mycoplasma contamination. […]
as §4, with “Spheroids were obtained by plating PC3 and 22Rv1 cells in low -adhesion round bottom 96 -well plates. For 22Rv1, 2500 cells/well were seeded in 200 µl RPMI 1640; for PC3, 250 cells/well were seeded in 200 µl RPMI 1640 supplemented with 1.5% Matrigel. After” for “After”
as §5

Test [3] deals with T1, BAZ2A bromodomain (Homo sapiens, UniProt Q9UIF9).
T1 construct: BAZ2A and BAZ2B bromodomains were produced; made in house
T1 sequence (Q9UIF9 1793-1897 limits assumed): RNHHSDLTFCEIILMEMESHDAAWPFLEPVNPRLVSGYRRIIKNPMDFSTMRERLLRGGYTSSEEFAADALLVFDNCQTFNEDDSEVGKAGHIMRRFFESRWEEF
Nature of the test: AlphaScreen binding competition, BAZ2A bromodomain. Particulars: for % residual binding BAZ2A (100 μM): compound at 100 μM. From the text: (§6) BAZ2A and BAZ2B bromodomains were produced and their activity evaluated by AlphaScreen as previously reported (Dalle Vedove et al., [2018]; Spiliotopoulos et al., [2017]). BAZ2A bromodomain was crystallized as detailed in an earlier work (Spiliotopoulos et al., [2017]). Diffraction data were collected at the Elettra Synchrotron Light Source (Trieste, Italy), XRD1 and XRD2 beamlines, and the European Synchrotron Radiation Facility (ESRF, Grenoble, France), ID30A‐1/MASSIF‐1 beamline. Data were processed and structures were solved as described elsewhere (Dalle Vedove et al., [2018]). Chemical synthesis of compounds UP39 and UZH23 has already been reported (Unzue et al., [2016]; Zhu et al., [2018]). A detailed description of cell culture methods and ITC protocol is provided in the Supporting Information.
(§7) Figure S3. AlphaScreen competition binding assay for compounds UP39 and UZH23. The specific binding to the acetylated peptide relative to the control DMSO (y-axis) is plotted against the corresponding compound concentration in µM in log10 scale (x-axis).
(§8) (1 picture or pasted object on this page, not shown here)
In general terms: In Alpha technology, singlet oxygen from a donor bead excites a nearby acceptor bead.

A further test concerns the target T2, BAZ2B bromodomain (Homo sapiens, UniProt Q9UIF8).
T2 construct: BAZ2A and BAZ2B bromodomains were produced; made in house
T2 sequence (Q9UIF8 2060-2164 limits assumed): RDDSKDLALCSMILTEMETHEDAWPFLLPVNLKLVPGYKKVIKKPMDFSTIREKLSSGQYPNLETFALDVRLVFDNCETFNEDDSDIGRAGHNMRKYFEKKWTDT
Nature of the test: AlphaScreen binding competition, BAZ2B bromodomain. To be noted: for % residual binding BAZ2B (100 μM): compound at 100 μM.
Source text: as §6, §7, §8

Test [4] deals with T1, BAZ2A bromodomain. Nature of the test: Screening by co‐crystallization with BAZ2A bromodomain. It is filed as binding.
Source text: as §6

Test [5] concerns first bromodomain of BRD4. On the set-up: method as in Hay et al., [2014]; Picaud et al., [2015]. Particulars: ref Hay et al., [2014]; Picaud et al., [2015]; cited from earlier work.
Test [6] deals with T1, BAZ2A bromodomain. Nature of the test: Isothermal titration calorimetry (ITC) on BAZ2A. It is filed as binding. An excerpt:
It is worth noticing however that these values may be slightly overestimated. The presence of 0.25% DMSO in the ITC experiments leads to less favorable K D values as DMSO competes for binding to the conserved Asn (Lolli & Battistutta, [2013]; Navratilova et al., [2016]). […] Indeed, the change in sign of the entropic term observed for TP‐238 binding to BAZ2A (compared to BPTF and CECR2) closely resembles the effect reported for crotonyllysine binding to the TAF1 bromodomain (compared to Kac), also displacing an additional water molecule from the binding pocket (Flynn et al., [2015]). […]
Isothermal Titration Calorimetry
ITC experiments were performed using an MicroCal PEAQ-IT C microcalorimeter (Malvern Panalytical, UK) at 25°C with a stirring speed of 750 rpm in 20mM Tris pH 7. 8, 0. 2 M NaCl, 0. 2 mM TCEP and 0. 25% DMSO. For each experiment, one 0. 4 µl injection followed by eighteen 2 µl injections have been performed, with 150 seconds separating each injectio n. The inhibitors were tested at 70 µM in the cell with His -Baz2A in the syringe at 1 mM. A blank run with only the buffer was carried out (Suppl. Fig. S6). Data analysis was done with PE A Q-ITC Analysis software , fitting the curve with the ‘one site’ model.

The target in another test is CECR2 bromodomain. Particulars: ref Ycas et al., [2020]; read-out: K D CECR2; cited from earlier work.
Another test deals with BRD9. Particulars: ref Ycas et al., [2020]; read-out: K D BRD9; cited from earlier work.
Another test has as its target BPTF. Particulars: ref Ycas et al., [2020]; read-out: K D BPTF; cited from earlier work.
The mark [7] stands for this setting: 3D setting, GSK2801 25 μM, BAZ2‐ICR 25 μM, BI9564 20 μM.

We go through five molecules from publication PMC10464297, “Reevaluation of bromodomain ligands targeting BAZ2A” (Protein Science : A Publication of the Protein Society, 2023).

“Also recorded” adds a separate entry of the source.

In the case of `COc1cc(-c2cn(C)c(=O)c3cnccc23)c(OC)cc1CN(C)C` [BI9564], in [1] (2D‐cell culture, PC3), the “effect on 2D growth of PC3 cells” value was “completely inactive on PC3 cells”. The “Slope (best-fit, linear regression of growth curve)” value in test [1] (PC3, 0.1 µM) was 0,1514; in test [1] (PC3, 0.25 µM) it was 0,1530; in [1] (PC3, 0.5 µM), 0,1594; in [1] (PC3, 1 µM) it was 0,1557; in [1] (PC3, 2.5 µM), 0,1485; in test [1] (PC3, 5 µM) it was 0,1453. In addition, the “Slope (best-fit, linear regression of growth curve)” value in [1] (PC3, 10 µM) is recorded as 0,1454; in [1] (PC3, 20 µM), 0,1470; in [2] (22Rv1, 0.1 µM) it was 0,1043; in test [2] (22Rv1, 0.25 µM), 0,1062; in test [2] (22Rv1, 0.5 µM), 0,1057; in test [2] (22Rv1, 1 µM), 0,1046. In addition, the “Slope (best-fit, linear regression of growth curve)” value in [2] (22Rv1, 2.5 µM) is 0,09943; in test [2] (22Rv1, 5 µM), 0,09452; in test [2] (22Rv1, 10 µM), 0,08987; in [2] (22Rv1, 20 µM), 0,08043. Further, the “effect on 2D growth of 22Rv1 cells” value in [2] (2D‐cell culture, 22Rv1) is given as “only moderately affected 22Rv1 cell growth; also recorded: limited activity only on 22Rv1 cells”. For the same molecule, the “effect on growth of PC3 spheroids” value in the test with PC3 spheroids (setting [7]) is given as “less effective on PC3”. Besides, the “slope2 (segmental linear regression of spheroid growth)” value in the test on PC3 spheroids (PC3 spheroids, 20 µM, after X0 = day 6) worked out at 69835; with 22Rv1 spheroids (22Rv1 spheroids, 20 µM, after X0 = day 9) it was 6998. Further, the “slope1 (segmental linear regression of spheroid growth)” value in the test on PC3 spheroids (PC3 spheroids, 20 µM, before X0 = day 6) is listed as 28821; with 22Rv1 spheroids (22Rv1 spheroids, 20 µM, before X0 = day 9), 12255. In the test on 22Rv1 spheroids (setting [7]), the “effect on growth of 22Rv1 spheroids” value was “reduced the growth of 22Rv1 spheroids”.

On to `CCC(=O)N1CCOc2c(cc(-c3ccc(OC)c(OC)c3)cc2OC[C@H]2CCCN(C)C2)C1` [I‐CBP112], for which, at BAZ2A bromodomain [3], the “% residual binding BAZ2A (100 μM)” value is 98 ± 2%. Besides, the “% residual binding BAZ2B (100 μM)” value at BAZ2B bromodomain is given as 96 ± 1%. Besides, the “located in BAZ2A Kac pocket by co‐crystallization” value (from here on “located in BAZ2A Kac pocket”) at BAZ2A bromodomain [4] is on record as “inability to act as BAZ2A inhibitors”. Besides, the “off‐target activity on the first bromodomain of BRD4” value in [5] is listed as “weak off‐target activity”.

In the case of `COc1ccc(CCc2nc3cc(-c4c(C)noc4C)ccc3n2C[C@H](C)N2CCOCC2)cc1Cl` [SGC‐CBP30], the “% residual binding BAZ2A (100 μM)” value at BAZ2A bromodomain [3] was 95 ± 4%. In addition, at BAZ2B bromodomain, the “% residual binding BAZ2B (100 μM)” value is reported as 92 ± 6%. Also, the “located in BAZ2A Kac pocket” value at BAZ2A bromodomain [4] is “inability to act as BAZ2A inhibitors”. Further, the “off‐target activity on the first bromodomain of BRD4” value in test [5] is “weak off‐target activity”.

For `CN(C)CCCOc1ccc(-c2cc(NCCCn3cccn3)nc(S(C)(=O)=O)n2)cc1` [TP‐238], on BAZ2A bromodomain [3], the “% residual binding BAZ2A (100 μM)” value is 81 ± 3%. Moreover, at BAZ2B bromodomain, the “% residual binding BAZ2B (100 μM)” value worked out at 77 ± 2%. The Kd at BAZ2A bromodomain [6] (25°C, 0.25% DMSO, read-out: K D BAZ2A) is 108000 ± 6000 nM; on CECR2 bromodomain, 10 nM; on BRD9, 1100 nM; at BPTF, 120 nM. Further, the TΔS at BAZ2A bromodomain [6] (BAZ2A) turned out to be 2.68 kcal/mol. Moreover, on BAZ2A bromodomain [6] (BAZ2A), the ΔG was -5.41 kcal/mol. Moreover, the ΔH at BAZ2A bromodomain [6] (BAZ2A) was -2.73 ± 0.07 kcal/mol. For the same molecule, at BAZ2A bromodomain [6] (BAZ2A, one site model), the “N (sites)” value stood at 1 sites. Besides, the “located in BAZ2A Kac pocket” value at BAZ2A bromodomain [4] was “located in the BAZ2A Kac pocket”.

Broadly, the IC50 is the concentration that inhibits the measured activity by half. A lower IC50 goes with greater potency. Regarding `CC(=O)n1cc(-c2c(C)nn3c2OCC3)c2ccccc21` [UZH23], the concentration for half-maximal inhibition (IC50) was 86000 ± 9000 nM at BAZ2A bromodomain [3] (AlphaScreen) and above 100000 nM on BAZ2B bromodomain (AlphaScreen). Moreover, the “% residual binding BAZ2A (100 μM)” value on BAZ2A bromodomain [3] amounted to 52 ± 9%. Further, on BAZ2B bromodomain, the “% residual binding BAZ2B (100 μM)” value came out at 62 ± 7%.
